Paper PMC8348310, “Antioxidants Isolated from Elaeagnus umbellata (Thunb.) Protect against Bacterial Infections and Diabetes in Streptozotocin-Induced Diabetic Rat Model” (Molecules, 2021)
Converted amounts (≈) assume the structure as drawn.

Assays:
Pseudomonas aeruginosa = assay: Broth dilution MIC determination; assay type: cell-based; conditions: 37 °C, 24 h, read-out: Minimum Inhibitory Concentrations
Description: (§1) Antibacterial potential of isolated compound was investigated against both Gram-positive and Gram-negative bacterial strains; Escherichia coli, Bacillus cereus, Salmonella typhi, Klebsiella pneumonia, Pseudomonas aeruginosa and Proteus mirabilis. Bacterial strains were provided by the Department of Pharmacy, University of Malakand, Khyber Pakhtunkhwa, Pakistan, and were kept at 4 °C in agar slants in freeze-dried condition until further use.
(§2) Both Gram-positive and Gram-negative bacterial strains Escherichia coli, Bacillus cereus, Salmonella typhi, Klebsiella pneumonia, Pseudomonas aeruginosa and Proteus mirabilis organism viable count per mL in the stock suspension was determined using surface viable counting technique. About 10^8–10^9 colony-forming units (CFU) per mL were used as inoculum in subsequent experiments. A fresh stock suspension was used each time.
(§3) Minimum inhibitory concentrations (MICs) of morin, phloroglucinol, and 1-hexyl benzene were determined using broth dilution method, following the Clinical and Laboratory Standards Institute (CLSI) guidelines. Stock solutions of morin, phloroglucinol, and 1-hexyl benzene were prepared in dimethylsulphoxide (DMSO). The serial dilutions from the stock solution were made ranging from 500 to 3.90 μg/mL using Mueller–Hinton broth. Sterile centrifuge tubes were arranged in sets of rows for each bacterial inoculum to cover the different concentration of isolated compounds in triplicate. The standard bacterial stock suspension 10^8–10^9 CFU/mL, in 100 μL were inoculated into each tube. A sterility control tube and a growth control tube were also incubated (for each strain). The tubes were incubated at 37 °C for 24 h. After incubation, 40 μL of a 0.4 mg/mL solution of para iodonitrotetrazolium (INT) chloride was added to each tube as an indicator of microbial growth. […] The evaluation for the inhibition of microbial growth was based on the color change of INT to pink, while no color change indicates the absence of growth. The MIC is the lowest concentration of the compounds at which there is no visible growth in the tubes. The concentration that inhibited bacterial growth completely (the first clear tube) was taken as the MIC value. Experiments were performed in triplicate and mean values are presented.
(§4) In order to, determine the sensitivity of the bacterial strains, positive control experiments were conducted, taking ampicillin at a starting concentration of 0.10 mg/mL in sterile water while the final concentrations for these experiments ranged from 25.00 to 0.19 μg/mL. A negative control experiment was conducted using only DMSO.

Proteus mirabilis = assay: Broth dilution MIC determination; assay type: cell-based; conditions: 37 °C, 24 h, read-out: Minimum Inhibitory Concentrations
Description: as §1, §2, §3, §4

Bacillus cereus = assay: Broth dilution MIC determination; assay type: cell-based; conditions: 37 °C, 24 h, read-out: Minimum Inhibitory Concentrations
Description: as §1, §2, §3, §4

Escherichia coli = assay: Broth dilution MIC determination; assay type: cell-based; conditions: 37 °C, 24 h, read-out: Minimum Inhibitory Concentrations
Description: as §1, §2, §3, §4

Klebsiella pneumonia = assay: Broth dilution MIC determination; assay type: cell-based; conditions: Klebsiella pneumoniae, 37 °C, 24 h, read-out: Minimum Inhibitory Concentrations
Description: as §1, §2, §3, §4

Staphylococcus aureus = assay: Broth dilution MIC determination; assay type: cell-based; conditions: 37 °C, 24 h, read-out: Minimum Inhibitory Concentrations
Description: as §3, with “Stock” for “Minimum inhibitory concentrations (MICs) of morin, phloroglucinol, and 1-hexyl benzene were determined using broth dilution method, following the Clinical and Laboratory Standards Institute (CLSI) guidelines. Stock”, “The serial dilutions from the stock solution were made ranging from 500 to 3.90 μg/mL using Mueller–Hinton broth.” left out, “The standard bacterial stock suspension 10^8–10^9 CFU/mL, in 100 μL were inoculated into each tube.” left out, “presented. […] A negative control experiment was conducted using only DMSO.” for “presented.”

Salmonella typhi = assay: Broth dilution MIC determination; assay type: cell-based; conditions: Salmonella enterica, 24 h, read-out: Minimum Inhibitory Concentrations
[1] = DPPH free radical scavenging assay; assay type: biochemical
Description: According to the Brand-Williams assay DPPH (2, 2-diphenyl-1-picrylhydrazyl) free radical scavenging activity of morin was determined. DPPH and compounds stock solutions (1 mg/mL) were prepared in 100 mL methanol with serial dilutions of […], 62.5, 250, 500, and 1000 µg/mL. After that, 0.1 mL morin was mixed with 3.0 mL DPPH solution and incubated at 23 °C for 30 min. Standard ascorbic acid solution was also prepared in the same way using as a positive control. Finally, absorbance was measured at 517 nm via UV spectrophotometer. Results were taken in a set of three experiments and represented as mean ± SEM. Percent free radicals scavenging potential was calculated according to the following Equation (1): (1) % Free radicals Scavenging potential = Blank sample absorbance−sample absorbance/Blank sample absorbance×100
(§5) All the in vitro and in vivo experiments were analyzed in three replicates and determined as mean ± SEM. Student’s t-test and one way ANOVA followed by Dunnett’s post hoc multiple comparison test was used. p ≤ 0.05 were considered as significant. Linear regression analysis was used to calculate the IC50 value for % DPPH, ABTS, α-amylase, and α-glucosidase inhibition against the different concentrations of the test samples by means of Excel program 2007.

[2] = DPPH free radical scavenging assay; assay type: biochemical; conditions: 125 µg/mL
[3] = ABTS free radical scavenging assay; assay type: biochemical
Description: ABTS (2,2′-azinobis-3-ethylbenzothiazoline-6-sulfonic acid) free radicals inhibition potential were determined according to the reported assay. ABTS solution was prepared in methanol (100 mL). In total, 300 µL of compound (morin, phloroglucinol, and 1-hexyl benzene) was mixed thoroughly with 3.0 mL ABTS solution and incubated for six minutes. Finally, the absorbance was measured through UV spectrophotometer using ascorbic acid as positive control. Percent ABTS free radicals scavenging potential was calculated using the equation No. 1.
as §5

[4] = 1000 µg/mL, listed as ascorbic acid
[5] = linear regression of % scavenging vs concentration

SMILES: CC1(C)S[C@@H]2[C@H](NC(=O)[C@H](N)c3ccccc3)C(=O)N2[C@H]1C(=O)O [Ampicillin, ampicillin, reference compound]
- MIC (Pseudomonas aeruginosa): 1.2 ± 0.5 µg/mL (≈ 3.43 µM)
- MIC (Proteus mirabilis): 1.9 ± 1.1 µg/mL (≈ 5.44 µM)
- MIC (Bacillus cereus): 1.6 µg/mL (≈ 4.58 µM)
- MIC (Escherichia coli): 1 ± 0.1 µg/mL (≈ 2.86 µM)
- MIC (Klebsiella pneumonia): 1.9 ± 1.2 µg/mL (≈ 5.44 µM)
- MIC (Staphylococcus aureus): 1.4 ± 0.5 µg/mL (≈ 4.01 µM)
- MIC (Salmonella typhi): 1.8 ± 0.1 µg/mL (≈ 5.15 µM)

SMILES: O=C1O[C@H]([C@@H](O)CO)C(O)=C1O [Ascorbic acid, ascorbic acid, reference compound]
- % DPPH Scavenging Mean ± SEM ([1]; 31.05 µg/mL): 69 ± 0.4%
- % DPPH Scavenging Mean ± SEM ([1]; 62.5 µg/mL): 73 ± 0.5%
- % DPPH Scavenging Mean ± SEM ([1]; 250 µg/mL): 80 ± 0.4%
- % DPPH Scavenging Mean ± SEM ([1]; 500 µg/mL): 86 ± 1.0%
- % DPPH Scavenging Mean ± SEM ([1]; 1000 µg/mL): 91 ± 0.5%
- % DPPH Scavenging Mean ± SEM [1, 4]: 86 ± 0.5%
- DPPH IC50 [1, 5]: 29 µg/mL
- % DPPH Scavenging Mean ± SEM [2]: 77 ± 0.4%
- % ABTS Scavenging Mean ± SEM ([3]; 31.05 µg/mL): 56 ± 1.1%
- % ABTS Scavenging Mean ± SEM ([3]; 62.5 µg/mL): 64 ± 1.0%
- % ABTS Scavenging Mean ± SEM ([3]; 125 µg/mL): 70 ± 0.5%
- % ABTS Scavenging Mean ± SEM ([3]; 250 µg/mL): 78 ± 0.5%
- % ABTS Scavenging Mean ± SEM ([3]; 500 µg/mL): 84 ± 1.1%
- % ABTS Scavenging Mean ± SEM ([3]; 1000 µg/mL): 90 ± 0.5%
- % ABTS Scavenging Mean ± SEM [3, 4]: 85 ± 0.5%
- ABTS IC50 [3, 5]: 32 µg/mL
